What was measured:
blackgrass = experiment: Test B pre/postemergence blackgrass; format: in vivo, Alopecurus myosuroides
Summary of the method: (§1)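 Response is a visual 0-to-10 score relative to untreated plants, where 0 means no effect and 10 means complete control, taken twelve to sixteen days after application. Treatments went onto soil at planting and onto foliage of 1- to 4-leaf plants, using a surfactant-containing non-phytotoxic solvent.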

cocklebur = experiment: Test B pre/postemergence cocklebur; format: in vivo, Xanthium strumarium
Summary of the method: as §1

wild oat = experiment: Test B pre/postemergence wild oat; format: in vivo, Avena fatua; settings: for Plant response rating, Wild oats: Rate 250 g/ha
Summary of the method: as §1

pigweed = experiment: Test B pre/postemergence pigweed; format: in vivo, Amaranthus retroflexus
Summary of the method: as §1

corn = experiment: Test B pre/postemergence corn; format: in vivo, Zea mays
Summary of the method: as §1

soybean = experiment: Test B pre/postemergence soybean; format: in vivo, Glycine max
Summary of the method: as §1

bedstraw = experiment: Test B pre/postemergence bedstraw; format: in vivo, Galium aparine; settings: Preemergence
Summary of the method: as §1

morningglory = experiment: Test B pre/postemergence morningglory; format: in vivo, Ipomoea hederacea
Summary of the method: as §1

purple nutsedge = experiment: Test B pre/postemergence purple nutsedge; format: in vivo, Cyperus rotundus
Summary of the method: as §1

velvetleaf = experiment: Test B pre/postemergence velvetleaf; format: in vivo, Abutilon theophrasti; settings: for Plant response rating, Velvetleaf: Rate 250 g/ha
Summary of the method: as §1

surinam grass = experiment: Test B pre/postemergence surinam grass; format: in vivo, Brachiaria decumbens
Summary of the method: as §1

wheat = experiment: Test B pre/postemergence wheat; format: in vivo, Triticum aestivum; settings: for Plant response rating, Wheat: Rate 250 g/ha
Summary of the method: as §1

crabgrass = experiment: Test B pre/postemergence crabgrass; format: in vivo, Digitaria sanguinalis
Summary of the method: as §1

rape = experiment: Test B pre/postemergence rape; format: in vivo, Brassica napus
Summary of the method: as §1

giant foxtail = experiment: Test B pre/postemergence giant foxtail; format: in vivo, Setaria faberii
Summary of the method: as §1

[1] = Postemergence, Rate 62 g/ha, scale 0 to 10, 0 is no effect, 10 is complete control
[2] = Postemergence, Rate 125 g/ha, scale of 0 to 10 where 0 is no effect and 10 is complete control
[3] = Postemergence, Rate 250 g/ha, scale 0 to 10, 0 no effect, 10 complete control
[4] = Preemergence, Rate 62 g/ha, scale 0 to 10 (0 no effect, 10 complete control)
[5] = Preemergence, Rate 125 g/ha, scale 0 to 10 (0 no effect, 10 complete control)
[6] = Preemergence, Rate 250 g/ha, scale of 0 to 10 where 0 is no effect and 10 is complete control
[7] = Preemergence, Rate 500 g/ha, scale 0 (no effect) to 10 (complete control)
[8] = Rate 500 g/ha, Postemergence, scale 0 to 10, 0 no effect, 10 complete control
[9] = Preemergence, Rate 125 g/ha, 0 is no effect, 10 is complete control
[10] = Preemergence, scale of 0 to 10 where 0 is no effect and 10 is complete control
[11] = Postemergence, scale 0 to 10, 0 is no effect, 10 is complete control
[12] = Rate 250 g/ha, Postemergence, scale 0 to 10, 0 is no effect, 10 is complete control

CCCn1c(=O)on(C(=O)N(c2ccc(F)cc2)C(C)C)c1=O [Compound 91]
Blackgrass plant response rating (blackgrass; [1]): 8 | Blackgrass plant response rating (blackgrass; [2]): 8 | Blackgrass plant response rating (blackgrass; [3]): 8 | Blackgrass plant response rating (blackgrass; [4]): 10 | Plant response rating, Blackgrass (blackgrass; [5]): 10 | Plant response rating, Blackgrass (blackgrass; [6]): 10 | Blackgrass plant response rating (blackgrass; [7]): 10 | Blackgrass plant response rating (blackgrass; [8]): 8 | Cocklebur plant response rating (cocklebur; [1]): 3 | Cocklebur plant response rating (cocklebur; [2]): 3 | Cocklebur plant response rating (cocklebur; [3]): 4 | Cocklebur plant response rating (cocklebur; [4]): 0 | Plant response rating, Cocklebur (cocklebur; [5]): 0 | Cocklebur plant response rating (cocklebur; [7]): 3 | Cocklebur plant response rating (cocklebur; [8]): 4 | Wild oats plant response rating (wild oat; [1]): 1 | Wild oats plant response rating (wild oat; [2]): 2 | Wild oats plant response rating (wild oat; [4]): 8 | Wild oats plant response rating (0 to 10 scale) (wild oat; [9]): 9 | Plant response rating, Wild oats (wild oat; [10]): 10 | Wild oats plant response rating (wild oat; [7]): 10 | Plant response rating, Wild oats (wild oat; [11]): 3 | Wild oats plant response rating (wild oat; [8]): 5 | Redroot pigweed plant response rating (pigweed; [1]): 1 | Redroot pigweed plant response rating (pigweed; [2]): 4 | Redroot pigweed plant response rating (pigweed; [4]): 6 | Plant response rating, Redroot pigweed (pigweed; [5]): 9 | Plant response rating, Redroot pigweed (pigweed; [6]): 10 | Redroot pigweed plant response rating (pigweed; [7]): 10 | Plant response rating, Redroot pigweed (pigweed; [12]): 6 | Redroot pigweed plant response rating (pigweed; [8]): 8 | Corn plant response rating (corn; [1]): 2 | Corn plant response rating (corn; [2]): 2 | Corn plant response rating (corn; [3]): 3 | Corn plant response rating (corn; [4]): 3 | Plant response rating, Corn (corn; [5]): 6 | Plant response rating, Corn (corn; [6]): 8 | Corn plant response rating (corn; [7]): 9 | Corn plant response rating (corn; [8]): 5 | Soybean plant response rating (soybean; [1]): 3 | Soybean plant response rating (soybean; [2]): 3 | Soybean plant response rating (soybean; [4]): 0 | Plant response rating, Soybean (soybean; [5]): 0 | Plant response rating, Soybean (soybean; [6]): 4 | Soybean plant response rating (soybean; [7]): 7 | Plant response rating, Soybean (soybean; [12]): 4 | Soybean plant response rating (soybean; [8]): 5 | Bedstraw plant response rating (bedstraw; Rate 62 g/ha, scale 0 to 10 (0 no effect, 10 complete control)): 0 | Plant response rating, Bedstraw (bedstraw; Rate 125 g/ha, scale 0 to 10 (0 no effect, 10 complete control)): 1 | Plant response rating, Bedstraw (bedstraw; Rate 250 g/ha, scale of 0 to 10 where 0 is no effect and 10 is complete control): 5 | Bedstraw plant response rating (bedstraw; Rate 500 g/ha, scale 0 (no effect) to 10 (complete control)): 8 | Morningglory plant response rating (morningglory; [1]): 7 | Morningglory plant response rating (morningglory; [2]): 7 | Morningglory plant response rating (morningglory; [3]): 8 | Morningglory plant response rating (morningglory; [4]): 0 | Plant response rating, Morningglory (morningglory; [5]): 0 | Plant response rating, Morningglory (morningglory; [6]): 4 | Morningglory plant response rating (morningglory; [7]): 6 | Morningglory plant response rating (morningglory; [8]): 9 | Nutsedge plant response rating (purple nutsedge; [1]): 0 | Nutsedge plant response rating (purple nutsedge; [2]): 0 | Nutsedge plant response rating (purple nutsedge; [3]): 0 | Nutsedge plant response rating (purple nutsedge; [4]): 0 | Plant response rating, Nutsedge (purple nutsedge; [5]): 0 | Plant response rating, Nutsedge (purple nutsedge; [6]): 0 | Nutsedge plant response rating (purple nutsedge; [8]): 0 | Velvetleaf plant response rating (velvetleaf; [1]): 0 | Velvetleaf plant response rating (velvetleaf; [2]): 0 | Velvetleaf plant response rating (velvetleaf; [4]): 6 | Velvetleaf plant response rating (0 to 10 scale) (velvetleaf; [9]): 6 | Plant response rating, Velvetleaf (velvetleaf; [10]): 7 | Velvetleaf plant response rating (velvetleaf; [7]): 8 | Plant response rating, Velvetleaf (velvetleaf; [11]): 3 | B. signalgrass plant response rating (surinam grass; [1]): 4 | B. signalgrass plant response rating (surinam grass; [3]): 8 | B. signalgrass plant response rating (surinam grass; [4]): 7 | Plant response rating, B. signalgrass (surinam grass; [5]): 10 | Plant response rating, B. signalgrass (surinam grass; [6]): 10 | B. signalgrass plant response rating (surinam grass; [7]): 10 | B. signalgrass plant response rating (surinam grass; Rate 125 g/ha, Postemergence, scale 0 to 10, 0 no effect, 10 complete control): 4 | B. signalgrass plant response rating (surinam grass; Rate 500 g/ha, Postemergence, scale of 0 to 10 where 0 is no effect and 10 is complete control): 8 | Wheat plant response rating (wheat; [1]): 1 | Wheat plant response rating (wheat; [2]): 1 | Wheat plant response rating (wheat; [4]): 3 | Wheat plant response rating (0 to 10 scale) (wheat; [9]): 4 | Plant response rating, Wheat (wheat; [10]): 4 | Wheat plant response rating (wheat; [7]): 6 | Plant response rating, Wheat (wheat; [11]): 4 | Wheat plant response rating (wheat; [8]): 6 | Crabgrass plant response rating (crabgrass; [1]): 5 | Crabgrass plant response rating (crabgrass; [2]): 9 | Crabgrass plant response rating (crabgrass; [3]): 9 | Crabgrass plant response rating (crabgrass; [4]): 10 | Plant response rating, Crabgrass (crabgrass; [5]): 10 | Plant response rating, Crabgrass (crabgrass; [6]): 10 | Crabgrass plant response rating (crabgrass; [7]): 10 | Crabgrass plant response rating (crabgrass; [8]): 9 | Rape plant response rating (rape; [1]): 2 | Rape plant response rating (rape; [2]): 3 | Rape plant response rating (rape; [3]): 4 | Rape plant response rating (rape; [4]): 7 | Plant response rating, Rape (rape; [5]): 8 | Plant response rating, Rape (rape; [6]): 10 | Rape plant response rating (rape; [7]): 10 | Rape plant response rating (rape; [8]): 10 | Giant foxtail plant response rating (giant foxtail; [1]): 8 | Giant foxtail plant response rating (giant foxtail; [2]): 8 | Giant foxtail plant response rating (giant foxtail; [3]): 8 | Giant foxtail plant response rating (giant foxtail; [4]): 10 | Plant response rating, Giant foxtail (giant foxtail; [5]): 10 | Plant response rating, Giant foxtail (giant foxtail; [6]): 10 | Giant foxtail plant response rating (giant foxtail; [7]): 10 | Giant foxtail plant response rating (giant foxtail; [8]): 9

— US6737383B1, “Herbicidal oxadiazolidines” (priority 1999, dated 2004)
